IC50 data for 44 compounds are collected here from patent publication US9290511B2, “Thieno-pyrimidines, useful as potassium channel inhibitors” (XENTION LIMITED, priority 2011, dated 2016).

The experiment deals with T1, Kir3.1/3.4 (Rattus norvegicus, UniProt P48548+P63251).
T1 construct: expressed in transfected cells
T1 sequence (P63251 1-501): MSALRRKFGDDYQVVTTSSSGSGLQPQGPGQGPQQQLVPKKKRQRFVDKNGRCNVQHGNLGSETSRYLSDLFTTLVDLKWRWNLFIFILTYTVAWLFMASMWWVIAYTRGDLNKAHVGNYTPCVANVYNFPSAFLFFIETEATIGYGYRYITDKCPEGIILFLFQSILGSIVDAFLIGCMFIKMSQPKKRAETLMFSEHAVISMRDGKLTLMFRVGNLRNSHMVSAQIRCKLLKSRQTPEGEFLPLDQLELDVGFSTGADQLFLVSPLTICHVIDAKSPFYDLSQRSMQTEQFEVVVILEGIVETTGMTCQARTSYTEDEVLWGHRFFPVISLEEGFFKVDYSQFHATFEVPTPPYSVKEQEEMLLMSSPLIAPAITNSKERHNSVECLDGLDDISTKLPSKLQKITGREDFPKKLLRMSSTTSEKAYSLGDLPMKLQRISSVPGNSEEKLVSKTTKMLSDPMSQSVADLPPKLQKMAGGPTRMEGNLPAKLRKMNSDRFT
T1 sequence (P48548 1-419): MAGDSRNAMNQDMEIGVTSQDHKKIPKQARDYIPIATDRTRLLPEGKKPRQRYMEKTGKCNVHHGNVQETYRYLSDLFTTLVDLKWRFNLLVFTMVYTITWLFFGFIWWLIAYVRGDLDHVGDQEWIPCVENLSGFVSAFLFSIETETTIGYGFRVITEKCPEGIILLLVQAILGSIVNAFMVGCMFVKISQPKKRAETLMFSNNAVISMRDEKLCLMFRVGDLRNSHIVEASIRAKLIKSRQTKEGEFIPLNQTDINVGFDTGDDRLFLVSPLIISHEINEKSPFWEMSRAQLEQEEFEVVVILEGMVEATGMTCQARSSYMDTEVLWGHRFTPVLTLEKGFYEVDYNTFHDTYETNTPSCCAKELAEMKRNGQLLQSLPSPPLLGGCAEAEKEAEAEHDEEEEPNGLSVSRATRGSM
The experiment in a line: Kir3.1/3.4 Electrophysiology Method (manual whole-cell patch clamp). The format is cell-based. The following applies: Electrophysiology Method (TABLE 1). An outline of the steps: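 Manual whole-cell patch clamp on HEK293 cells stably expressing rat Kir3.1/3.4, with GTPγS in the pipette. Cells were held at −60 mV and stepped to +60 mV, then ramped to −140 mV every 10 s. Steady-state inhibition at −140 mV was measured after subtracting leak recorded in zero-K+ bath.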
As for `CC(C)N1CCCC1CCN(C)CC1CCN(c2ncnc3scc(-c4ccccc4)c23)CC1` (centres unmarked) [Example 88, 2-(1-isopropylpyrrolidin-2-yl)-N-methyl-N-[[1-(5-phenylthieno[2,3-d]pyrimidin-4-yl)-4-piperidyl]methyl]ethanamine], the IC50 is < 500 nM.

For `Fc1ccc(-c2csc3nc(Cl)nc(N4CCC(COCCN5CCCC5)CC4)c23)cc1` [Example 279], the IC50 is < 500 nM.

Regarding `CC(C)c1csc2ncnc(N3CC4CC3CC4OCCN3CC4CC3CO4)c12` (centres unmarked) [Example 292, 5-[2-[[2-(5-isopropylthieno[2,3-d]pyrimidin-4-yl)-2-azabicyclo[2.2.1]heptan-5-yl]oxy]ethyl]-2-oxa-5-azabicyclo[2.2.1]heptane], the IC50 is 500 to 3000 nM.

Regarding `NC(=O)C1CCN(c2nc(N3CCC(COCCN4CCCC4)CC3)c3c(-c4ccccc4)csc3n2)C1` (centres unmarked) [Example 256], the IC50 is < 500 nM.

For the compound `CC(=O)NC1CCN(c2nc(N3CCC(COCCN4CCOCC4)CC3)c3c(-c4ccccc4)csc3n2)C1` (centres unmarked) [Example 259], the IC50 was < 500 nM.

For `CN(C)C(=O)c1sc2ncnc(N3C4CCC3CC(N(C)C3CCC3)C4)c2c1-c1ccccc1` (centres unmarked) [Example 347], the IC50 was < 500 nM.

On to `c1ccc(-c2csc3nc(C4CC4)nc(N4CCC(COCCN5CCCC5)CC4)c23)cc1` [Example 360], for which the IC50 is < 500 nM.

As for `CC(C)NCC1CCN(c2ncnc3scc(-c4ccccc4)c23)CC1` [Example 187], the IC50 was < 500 nM.

`O=C1CN(CC2CCN(c3ncnc4scc(-c5ccccc5)c34)CC2)CCN1` [Example 213] showed an IC50 of 500 to 3000 nM.

As to `N#Cc1sc2nccc(N3CCC(COCCN4CCCC4)CC3)c2c1-c1ccccc1` [Example 144], the IC50 was < 500 nM.

For the compound `CN1CCC(N(C)CC2CCN(c3nc(NCC4CC4)nc4scc(-c5ccccc5)c34)CC2)C1` (centres unmarked) [Example 119], the IC50 is < 500 nM.

Consider `CCc1nc(N2CCC(N(C)C)CC2)c2c(-c3ccccc3)csc2n1` [Example 370], for which the IC50 is < 500 nM.

For `CC(C)(C)NC(C)(C)C#Cc1ncnc2scc(-c3ccccc3)c12` [Example 318], the IC50 was < 500 nM.

In the case of `COc1ncccc1-c1csc2ncnc(N3C4CCC3CC(CO)C4)c12` (centres unmarked) [Example 365], the IC50 lay in the range of 500 to 3000 nM.

Take `CC(=O)NC1CCN(CC2CCN(c3ncnc4scc(-c5ccccc5)c34)CC2)C1` (centres unmarked) [Example 253]: the IC50 was < 500 nM.

Turning to `CN1CCC(N(C)C2CCN(c3ncnc4scc(-c5ccccc5)c34)CC2)C1` (centres unmarked) [Example 231], the IC50 is < 500 nM.

In the case of `CN(C)C1CCN(C2CCN(c3ncnc4scc(-c5ccccc5)c34)CC2)CC1` [Example 222], the IC50 is < 500 nM.

With `c1ccc(-c2csc3nc(N4CCC(COCCN5CCCC5)C4)ncc23)cc1` (centres unmarked) [Example 149], the IC50 was < 500 nM.

In the case of `FC(F)(F)Oc1cccc(-c2csc3ncnc(N4CCC(COCCN5CCCC5)CC4)c23)c1` [Example 313], the IC50 was < 500 nM.

For `NC(=O)C1CCN(CCOC2CC3CC2CN3c2ncnc3scc(-c4ccccc4)c23)C1` (centres unmarked) [Example 290], the IC50 was < 500 nM.

Take `COCC1CCN(c2nc(CC(=O)NCCN3CCCC3)nc3scc(-c4ccccc4)c23)CC1` [Example 182]: the IC50 is < 500 nM.

`Cc1sc2ncnc(N3CCC(CN4CCCC(N(C)C)C4)CC3)c2c1C` (centres unmarked) [Example 234]: the IC50 is < 500 nM.

With `CC(C)N(CCNCC1CCN(c2ncnc3scc(-c4ccccc4)c23)CC1)C(C)C` [Example 62, N′,N′-diisopropyl-N-[[1-(5-phenylthieno[2,3-d]pyrimidin-4-yl)-4-piperidyl]methyl]ethane-1,2-diamine], the 50% inhibitory concentration (IC50) was < 500 nM.

As for `CN(C)C(=O)c1ccccc1-c1csc2ncnc(N3C4CCC3CC(COCCN3CCCC3)C4)c12` (centres unmarked) [Example 364], the IC50 is < 500 nM.

In the case of `CN1CCC(N(C)CC2CCN(c3nc(N4CCNCC4)nc4scc(-c5ccccc5)c34)CC2)C1` (centres unmarked) [Example 112], the IC50 was < 500 nM.

For `c1ccc(-c2csc3ncnc(N4CCC(N5CCCCC5)C4)c23)cc1` (centres unmarked) [Example 181, d]pyrimidine], the IC50 was in the range of 500 to 3000 nM.

Regarding `CN(C)C1CCCN(CC2CCN(c3nc(NCCN4CCCC4)nc4scc(-c5ccccc5)c34)CC2)C1` (centres unmarked) [Example 117], the IC50 was < 500 nM.

Take `CN1CCCC1CCNCC1CCN(c2ncnc3scc(-c4ccccc4)c23)CC1` (centres unmarked) [Example 58, 2-(1-methylpyrrolidin-2-yl)-N—[[1-(5-phenylthieno[2,3-d]pyrimidin-4-yl)-4-piperidyl]methyl]ethanamine]: the IC50 is < 500 nM.

On to `CC(C)NC1CC2CCC(C1)N2c1ncnc2scc(-c3ccccc3)c12` (centres unmarked) [Example 327, N-isopropyl-8-(5-phenylthieno[2,3-d]pyrimidin-4-yl)-8-azabicyclo[3.2.1]octan-3-amine], for which the IC50 is < 500 nM.

Take `CNC(=O)C1CCCN(c2nc(N3CCC(CN(C)C4CCN(C)C4)CC3)c3c(-c4ccccc4)csc3n2)C1` (centres unmarked) [Example 227]: the IC50 is < 500 nM.

For “8-azabicyclo[3.2.1]octan-3-amine [Example 325]”, the IC50 was < 500 nM.

Consider `c1ccc(-c2csc3ncnc(N4CCC(COc5cccnc5)CC4)c23)cc1` [Example 180], for which the IC50 was < 500 nM.

For the compound `Fc1ccc(-c2csc3ncnc(N4CC5C(COCCN6CC[C@H](F)C6)C5C4)c23)cc1` (stereo partly drawn) [Example 47, 5-(4-fluorophenyl)-4-[6-[2-[(3S)-3-fluoropyrrolidin-1-yl]ethoxymethyl]-3-azabicyclo[3.1.0]hexan-3-yl]thieno[2,3-d]pyrimidine], the IC50 is < 500 nM.

`F[C@@H]1CCN(CCOCC2CCN(c3ncc4c(-c5ccccc5)csc4n3)CC2)C1` [Example 151]: the IC50 is < 500 nM.

As for `c1ccc(-c2csc3ncnc(N4CC(COCCN5CCCC5)C4)c23)cc1` [Example 273], the IC50 fell in the range of 500 to 3000 nM.

Consider `CC(C)OCC1CCN(c2ncnc3scc(-c4ccccc4)c23)CC1` [Example 15, 4-[4-(isopropoxymethyl)-1-piperidyl]-5-phenyl-thieno[2,3-d]pyrimidine], for which the IC50 fell in the range of 500 to 3000 nM.

Consider `CNC(=O)c1sc2ncnc(N3C4CCC3CC(COCCN3CCCC3)C4)c2c1-c1ccccc1` (centres unmarked) [Example 361], for which the IC50 was < 500 nM.

With `OC1CCCN(CC2CCN(c3ncnc4scc(-c5ccccc5)c34)CC2)C1` (centres unmarked) [Example 55, 1-[[1-(5-phenylthieno[2,3-d]pyrimidin-4-yl)-4-piperidyl]methyl]piperidin-3-ol], the IC50 was in the range of 500 to 3000 nM.

In turn, `CN1CCN(c2nc(N3CCC(CNC4(CO)CCCC4)CC3)c3c(-c4ccccc4)csc3n2)CC1` [Example 113] showed an IC50 of 500 to 3000 nM.

For `Cc1csc2ncnc(N3CC(CNCCC4CCCN4C)CC3c3ccccc3)c12` (centres unmarked) [Example 210], the IC50 is < 500 nM.

`c1ccc(-c2coc3ncnc(N4CCC(COCCN5CCCC5)CC4)c23)cc1` [Example 308, 5-phenyl-4-[4-(2-pyrrolidin-1-ylethoxymethyl)-1-piperidyl]furo[2,3-d]pyrimidine]: the IC50 is < 500 nM.

In the case of `CC(C)c1csc2ncnc(N3CC4CC3CC4OCCN3CCCC3)c12` (centres unmarked) [Example 288], the IC50 was < 500 nM.

For the compound `CCN(CC)C(=O)C1CCCN(CC2CCN(c3ncnc4scc(-c5ccccc5)c34)CC2)C1` (centres unmarked) [Example 246], the IC50 is < 500 nM.

Regarding `CCc1c(C)sc2ncnc(N3CCC(COCCC4CCCN4C)CC3)c12` (centres unmarked) [Example 24, 5-ethyl-6-methyl-4-[4-[2-(1-methylpyrrolidin-2-yl)ethoxymethyl]-1-piperidyl]thieno[2,3-d]pyrimidine], the IC50 was < 500 nM.

By IC50 is commonly meant the concentration at which inhibition is half-maximal.
